Ends that are not written are not given here.
Tests used:
[1] = test system: SNAP-tagged human GIPR; assay: Confocal microscopy of co-internalization with FITC agonist, SNAP-GIPR; type: cell-based
Text: (§1) Figure 1. Beta cell GLP-1R vs GIPR trafficking patterns. […] (B) Rates of GLP-1R vs GIPR internalization (k values) derived from (A) by one-phase association (with Y0 = 0) of baseline-deleted DERET data; n = 5. (C) GLP-1R vs GIPR internalization dose response curves measured by high-content microscopy assay (HCA) in the same cells as above. […] (F) Quantification of surface GLP-1R vs GIPR levels in WT mouse islets using fluorescent agonist uptake data from (E); data corrected for binding affinity differences between both agonists; n = 4. (G) GLP-1R vs GIPR recycling dose response curves measured by high-content microscopy assay (HCA) in cells from (C); n = 5. […] Nuclei (DAPI), blue. Data are mean ± SEM, compared by paired or unpaired t tests, or two-way ANOVA with Sidak's post hoc test; *P < .05, **P < .01, ***P < .001; size bars: 10 µm.
(§2) Finally, using alternative fluorescent conjugates labeled with TMR, the amount of TMR-labeled agonist intracellular accumulation during the first 5 minutes of stimulation for each receptor correlated with the previously shown receptor internalization results in INS-1 832/3 SNAP-GLP-1R/SNAP-GIPR cell lines (Supplemental Fig. 3A and 3B) ([32]).

[2] = test system: SNAP-tagged human GIPR; assay: TMR agonist intracellular accumulation, INS-1 832/3 SNAP-GIPR; type: cell-based; conditions: 5 minutes poststimulation
Method: as §2

[3] = test system: endogenous GIPR in mouse islets; assay: Confocal imaging of TMR agonist in mouse primary islets, GIPR; type: cell-based
Method: (§3) Nondiabetic mice of both sexes were used for islet isolation. Briefly, pancreata were infused via the common bile duct with RPMI-1640 medium containing 1 mg/mL collagenase from Clostridium histolyticum (Nordmark Biochemicals), dissected, and incubated in a water bath at 37 °C for 10 minutes. Islets were subsequently washed and purified using a Histopaque gradient (Histopaque-1119, 11191, Sigma-Aldrich, and Histopaque-1083, 10831, Sigma-Aldrich). Isolated islets were allowed to recover overnight at 37 °C in 5% CO2 in RPMI-1640 supplemented with 10% FBS and 1% penicillin/streptomycin. All procedures were carried out in accordance with the regulations of the UK Home Office Animals (Scientific Procedures) Act and the Imperial College London guidelines for animal care. Animal protocols were approved by the Home Office Animals in Science Regulation Unit (ASRU) under Project License number PP7151519 to Dr. A. Martinez-Sanchez.
as §1

[4] = test system: endogenous GLP-1R in mouse islets; assay: Confocal imaging of TMR agonist in mouse primary islets, GLP-1R; type: cell-based; conditions: 100 nM GLP-1-TMR; 15 minutes
Method: as §3
Figure 1. […] (C) GLP-1R vs GIPR internalization dose response curves measured by high-content microscopy assay (HCA) in the same cells as above. […] (F) Quantification of surface GLP-1R vs GIPR levels in WT mouse islets using fluorescent agonist uptake data from (E); data corrected for binding affinity differences between both agonists; n = 4. (G) GLP-1R vs GIPR recycling dose response curves measured by high-content microscopy assay (HCA) in cells from (C); n = 5. […]

[5] = test system: GLP-1R; conditions: tirzepatide; cited from earlier work
Text: In summary, we have described here significant differences in the trafficking and spatiotemporal signaling propensities of the 2 incretin receptors following their stimulation with native agonists in beta cells. While the GLP-1R is a rapidly internalizing receptor with increased propensity for β-arrestin 2 recruitment, endosomal localization and activity, and lysosomal degradation, the GIPR is associated with reduced coupling to G proteins and β-arrestin 2, as well as reduced internalization and endosomal activity, increased recycling, and an overall increase in beta cell signaling despite hig ...

[6] = test system: T2D patients; conditions: dual GLP-1R/GIPR targeting peptides; cited from earlier work
Text: Incretin receptors, comprising the glucagon-like peptide-1 receptor (GLP-1R) and the glucose-dependent insulinotropic polypeptide receptor (GIPR), are key components of the glucoregulatory system due to their capacity to prevent postprandial hyperglycemia by amplifying insulin secretion from pancreatic beta cells in a glucose-dependent manner ([1]). Since their discovery and cloning in the 1990s ([2-4]), both receptors have been recognized for their glucose lowering potential. However, while the GLP-1R has successfully been exploited for the treatment of type 2 diabetes (T2D), with several pha ...

GIP-FITC: fluorescein isothiocyanate (FITC) conjugate of GIP(1-42) (YAEGTFISDYSIAMDKIHQQDFVNWLLAQKGKKNDWKHNITQ; also: FITC conjugate, position not given here)
SNAP-GIPR endocytosis ([1]; 30 min, 100 nM GIP-FITC): only partial SNAP-GIPR endocytosis
Intracellular GIP-FITC signal accumulation ([1]; after 30 minutes of agonist stimulation): some intracellular GIP-FITC signal accumulation

GIP-TMR: tetramethylrhodamine (TMR) conjugate of GIP(1-42) (YAEGTFISDYSIAMDKIHQQDFVNWLLAQKGKKNDWKHNITQ; also: TMR conjugate, position not given here)
Intracellular accumulation of TMR-labeled agonist [2]: negligible
GIP-TMR signal in islets at 100 nM ([3]; 100 nM, not shown): virtually undetectable
Localization of TMR agonist in WT mouse primary islets ([3]; 1 µM GIP-TMR, 15 minutes): could be detected at the plasma membrane
GIP-TMR uptake compared with GLP-1-TMR, dispersed mouse islet cells ([3]; dispersed mouse islet cells): markedly reduced
TMR agonist signal in WT islets, GIP-TMR vs GLP-1-TMR ([3]; quantified in Fig. 1F, corrected for binding affinity differences, n = 4): significantly lower
GIP-TMR signal at the plasma membrane, Gipr-/- (KO) islets ([3]; same concentration of GIP-TMR as WT (1 µM), specificity control): absent

GLP-1-TMR: tetramethylrhodamine (TMR) conjugate of GLP-1(7-36)NH2 (HAEGTFTSDVSSYLEGQAAKEFIAWLVKGR-NH2; also: TMR conjugate, position not given here)
Localization of TMR agonist in WT mouse primary islets [4]: predominantly localized in punctate structures reminiscent of endosomes

tirzepatide
Internalization and β-arrestin 2 recruitment at the GLP-1R [5]: reduced internalization and β-arrestin 2 recruitment at the GLP-1R
Efficacy compared with approved GLP-1R agonist monotherapies [6]: enhanced efficacy

— paper PMC10016038, “Enhanced Endosomal Signaling and Desensitization of GLP-1R vs GIPR in Pancreatic Beta Cells” (Endocrinology, 2023)
